Consider seven compounds from article PMC12261233, “Photoactivatable Cyclometalated Ir(III) Compound Penetrates the Blood-Brain Barrier in 3D Spheroidal and Advanced 3D Organoid Models of Inherently Resistant and Aggressive Brain Tumors” (ACS Pharmacology & Translational Science, 2025).

SMILES strings stand for the structures. Where two headings read alike, the source gives them in different places.

Broadly, the IC50 is the concentration that gives 50% inhibition.

One data set deals with U87MG spheroids. In words: Antiproliferative activity, 3D spheroids, CellTiter-Glo 3D assay. The format is cell-based, human. As to conditions: for PI (phototoxicity index) 3D: IC50 dark / IC50 420 nm irradiated; for IC50: U87MG 3D spheroids, 90 min treatment, CellTiter-Glo 3D; for TMI (3D/2D): ratio of IC50 for 3D and 2D models under irradiation. How it is done: The antiproliferative activity of the compounds under investigation was assessed using the Sulforhodamine B (SRB) assay on both 2D cell monolayers and 3D spheroids. For the 2D cell monolayer assay, cells were seeded in 96-well tissue culture plates at a density of 3 × 10^3 cells/well in 100 μL of culture medium. Following overnight incubation in a humidified CO2 incubator, the medium was replaced, and the cells were treated with the investigated compounds in a final volume of 200 μL/well of Earle’s Balanced Salt Solution (EBSS). The cells were then exposed to the tested compounds for 1.5 h under dark conditions (5% CO2, 37 °C) and subsequently irradiated with blue light (420 nm) for 30 min at an intensity of 58 W/m^2. After treatment, the samples were washed with Phosphate-Buffered Saline (PBS) and replenished with 200 μL of culture medium. Following an additional 70-h incubation, the cells were washed with PBS, fixed with trichloroacetic acid at 4 °C for 1 h, and stained with 0.4% SRB dye for 30 min. The stained cells were dissolved with Tris (10 mM), and the cell viability was assessed by measuring the absorbance at 570 nm using an Absorbance Reader (SPARK TECAN, SCHOELLER). The absorbance readings were then converted to the percentage of control (% cell survival), and the antiproliferative effects were expressed as IC50 values, which were calculated from curves plotting cell survival (%) versus drug concentration (μM) (IC50 = the concentration of the agent that inhibits cell growth by 50%). For experiments with 3D spheroids, 2500 single cells/well were seeded on ultralow attachment U-shape 96-well plates (Corning, USA) and cultured for 72 h in 3D forming medium DMEM-F12 ham medium supplemented with growth and spheroid forming factors: 2% B27 (Thermo Fisher Scientific Inc., MA, USA), epidermal growth factor (EGF; Sigma-Aldrich, Germany, 20 ng mL^–1), fibroblast growth factor (FGF2; Sigma-Aldrich, Germany, 10 ng mL^–1), and BSA (0.15%). After the 72-h spheroid formation period, the samples were treated and irradiated as described for the 2D cultures. Subsequently, the samples were cultured in the 3D forming medium for an additional 70 h, and the antiproliferative potency of the tested compounds against spheroids was determined by assessing changes in IC50 values using the CellTiterGlo-3D assay (Promega). The luminescence signal was detected using the plate reader SPARK (Tecan, Manedorf, Switzerland), and the IC50 values were calculated from the survival curves. All experiments were conducted in triplicate to ensure the reliability and reproducibility of the results. Furthermore, the concentrations of the compounds in the medium during the treatment were verified using Flame Atomic Absorption Spectroscopy (FAAS) or Inductively Coupled Plasma Mass Spectrometry (ICP-MS).
The antiproliferative activity (IC50 valuesa) of the investigated compounds determined in 2D and 3D models of U87MG cellsb
Dark Irradiated PId Dark Irradiated PIe (3D/2D) […]
a Concentration that causes 50% inhibition of cell proliferation. b Cell monolayer or generated 3D spheroids were treated for 90 min with increasing concentrations of the investigated compounds, followed by 30 min of irradiation with blue light (420 nm; 58 Wm-2) and 70 h of drug-free incubation. c IC50 values were determined by SRB assay. d IC50 values were determined by CellTiter-Glo® 3D chemiluminescent assay. e PI - phototoxicity index was calculated as the ratio of IC50 determined under the dark conditions / IC50 determined for 420 […]
f TMI – tissue-mass index was calculated as the ratio of IC50 values determined for 3D and 2D models under irradiation conditions.

A further data set concerns U87MG cells. The data set is described as follows: Antiproliferative activity, 2D monolayer, SRB assay. As to conditions: for PI (phototoxicity index) 2D: IC50 dark / IC50 420 nm irradiated; for IC50: U87MG 2D monolayer, 90 min treatment, SRB. Format: cell-based, human. On the procedure: The antiproliferative activity of the compounds under investigation was assessed using the Sulforhodamine B (SRB) assay on both 2D cell monolayers and 3D spheroids. For the 2D cell monolayer assay, cells were seeded in 96-well tissue culture plates at a density of 3 × 10^3 cells/well in 100 μL of culture medium. Following overnight incubation in a humidified CO2 incubator, the medium was replaced, and the cells were treated with the investigated compounds in a final volume of 200 μL/well of Earle’s Balanced Salt Solution (EBSS). The cells were then exposed to the tested compounds for 1.5 h under dark conditions (5% CO2, 37 °C) and subsequently irradiated with blue light (420 nm) for 30 min at an intensity of 58 W/m^2. After treatment, the samples were washed with Phosphate-Buffered Saline (PBS) and replenished with 200 μL of culture medium. Following an additional 70-h incubation, the cells were washed with PBS, fixed with trichloroacetic acid at 4 °C for 1 h, and stained with 0.4% SRB dye for 30 min. The stained cells were dissolved with Tris (10 mM), and the cell viability was assessed by measuring the absorbance at 570 nm using an Absorbance Reader (SPARK TECAN, SCHOELLER). […] After the 72-h spheroid formation period, the samples were treated and irradiated as described for the 2D cultures. […] The luminescence signal was detected using the plate reader SPARK (Tecan, Manedorf, Switzerland), and the IC50 values were calculated from the survival curves. All experiments were conducted in triplicate to ensure the reliability and reproducibility of the results. Furthermore, the concentrations of the compounds in the medium during the treatment were verified using Flame Atomic Absorption Spectroscopy (FAAS) or Inductively Coupled Plasma Mass Spectrometry (ICP-MS). […]
drug-free incubation. c IC50 values were determined by SRB assay. d IC50 values were determined by CellTiter-Glo® 3D chemiluminescent assay. e PI - phototoxicity index was calculated as the ratio of IC50 determined under the dark conditions / IC50 determined for 420 […]
models under irradiation conditions.

Data set [1] in a line: Stability in the dark by UV/vis spectroscopy. The format is physicochemical. To be noted: DMSO, water, cell culture medium (RPMI), presence of glutathione; up to 24h. How it is done:
The stability of complex Ir10 was studied in DMSO, water (1% DMSO), and RPMI (5% DMSO) using UV/vis spectroscopy at different times in the absence and presence of GSH (10 mM) or NADH (100 μM) to mimic the cellular and physiological conditions (Figure S6).

[2] abbreviates: dark, 70 h drug-free, read-out: IC50 3D Dark.
Setting [3] is: 30 min blue light 420 nm 58 W m-2, 70 h drug-free, read-out: IC50 3D Irradiated.
The mark [4] stands for this setting: dark, 70 h drug-free incubation, read-out: IC50 2D Dark.
The mark [5] stands for this setting: 30 min blue light 420 nm 58 W m-2, 70 h drug-free, read-out: IC50 2D Irradiated.

Turning to `Cc1ccc(-c2cc3[n+]4c(c2)-c2cccc[n+]2[Ir-3]42([Cl])([c]4cc5ccccc5cc4-c4n(C)c5ccccc5[n+]42)[n+]2ccccc2-3)cc1.F[P-](F)(F)(F)(F)F` [Ir7], in the data set on U87MG spheroids, the “PI (phototoxicity index) 3D” value was 1.6. Further, the IC50 was found to be 10.8 ± 1.6 µM in the data set with U87MG spheroids (setting [2]), 6.7 ± 0.6 µM in the data set with U87MG spheroids (setting [3]), 7.1 ± 0.4 µM in the data set with U87MG cells (setting [4]) and 1.5 ± 0.2 µM in the data set with U87MG cells (setting [5]). Also, the “TMI (3D/2D)” value in the data set on U87MG spheroids came out at 4.5. Besides, the “PI (phototoxicity index) 2D” value in the data set with U87MG cells was determined as 4.7.

Regarding `Cc1ccc(-c2cc3[n+]4c(c2)-c2cccc[n+]2[Ir-3]42([Cl])([c]4ccsc4-c4n(Cc5ccc(C(F)(F)F)cc5)c5ccccc5[n+]42)[n+]2ccccc2-3)cc1.F[P-](F)(F)(F)(F)F` [Ir1], the “PI (phototoxicity index) 3D” value with U87MG spheroids is reported as 2.9. The IC50 is 16.4 ± 0.2 µM in the data set with U87MG spheroids (setting [2]), 5.7 ± 0.7 µM with U87MG spheroids (setting [3]), 4.3 ± 0.1 µM in the data set on U87MG cells (setting [4]) and 1.3 ± 0.1 µM in the data set with U87MG cells (setting [5]). Further, the “TMI (3D/2D)” value in the data set on U87MG spheroids came to 4.4. For the same compound, the “PI (phototoxicity index) 2D” value in the data set on U87MG cells is 3.5.

For the compound `Cc1ccc(-c2cc3[n+]4c(c2)-c2cccc[n+]2[Ir-3]42([Cl])([c]4c(ccc5c4OCO5)-c4n(C)c5ccccc5[n+]42)[n+]2ccccc2-3)cc1.F[P-](F)(F)(F)(F)F` [Ir9], the “PI (phototoxicity index) 3D” value with U87MG spheroids is recorded as 2.6. Besides, the IC50 with U87MG spheroids (setting [2]) came to 18.9 ± 0.2 µM; with U87MG spheroids (setting [3]) it was 7.3 ± 0.3 µM; in the data set with U87MG cells (setting [4]) it was 6.2 ± 0.7 µM; in the data set with U87MG cells (setting [5]), 1.3 ± 0.2 µM. Further, the “TMI (3D/2D)” value in the data set on U87MG spheroids is reported as 5.6. Moreover, in the data set on U87MG cells, the “PI (phototoxicity index) 2D” value is on record as 4.6.

Consider `COC(=O)c1ccc2c(c1)[n+]1c(n2Cc2ccc(C(F)(F)F)cc2)-c2cccc[c]2[Ir-3]123([Cl])[n+]1ccccc1-c1cc(-c4ccc(C)cc4)cc([n+]12)-c1cccc[n+]13.F[P-](F)(F)(F)(F)F` [Ir10], for which the “PI (phototoxicity index) 3D” value in the data set with U87MG spheroids was 3.9. The IC50 was 41.3 ± 1.6 µM in the data set with U87MG spheroids (setting [2]), 10.5 ± 0.6 µM with U87MG spheroids (setting [3]), 34.2 ± 5.3 µM in the data set with U87MG cells (setting [4]) and 2.2 ± 0.9 µM with U87MG cells (setting [5]). Also, the “TMI (3D/2D)” value with U87MG spheroids came out at 4.8. For the same compound, in the data set with U87MG cells, the “PI (phototoxicity index) 2D” value is recorded as 15.5. Moreover, in data set [1], the “stability in the dark” value is recorded as “stable”.

Take `Cc1ccc(-c2cc3[n+]4c(c2)-c2cccc[n+]2[Ir-3]42([Cl])([c]4ccccc4-c4n(C)c5ccccc5[n+]42)[n+]2ccccc2-3)cc1.F[P-](F)(F)(F)(F)F` [Ir6]: the “PI (phototoxicity index) 3D” value in the data set on U87MG spheroids was determined as 3.1. The IC50 in the data set with U87MG spheroids (setting [2]) came out at 26 ± 5.1 µM; in the data set with U87MG spheroids (setting [3]) it was 8.3 ± 1.1 µM; with U87MG cells (setting [4]), 23.9 ± 3.1 µM; in the data set with U87MG cells (setting [5]) it was 1 ± 0.1 µM. In addition, the “TMI (3D/2D)” value in the data set with U87MG spheroids stood at 8.3. In the data set on U87MG cells, the “PI (phototoxicity index) 2D” value was determined as 23.

Regarding `Cc1ccc(-c2cc3[n+]4c(c2)-c2cccc[n+]2[Ir-3]42([Cl])([c]4ccsc4-c4n(C)c5ccccc5[n+]42)[n+]2ccccc2-3)cc1.F[P-](F)(F)(F)(F)F` [Ir8], the “PI (phototoxicity index) 3D” value in the data set on U87MG spheroids was determined as 2.8. Also, the IC50 worked out at 19.3 ± 0.7 µM in the data set on U87MG spheroids (setting [2]), 7 ± 0.9 µM in the data set with U87MG spheroids (setting [3]), 9.3 ± 0.9 µM with U87MG cells (setting [4]) and 0.8 ± 0.05 µM with U87MG cells (setting [5]). For the same compound, the “TMI (3D/2D)” value in the data set on U87MG spheroids came out at 8.8. Also, in the data set with U87MG cells, the “PI (phototoxicity index) 2D” value is recorded as 12.

As to `Cc1ccc(-c2cc3[n+]4c(c2)-c2cccc[n+]2[Ir-3]42([Cl])([c]4ccccc4-c4n(Cc5ccc(C(F)(F)F)cc5)c5ccccc5[n+]42)[n+]2ccccc2-3)cc1.F[P-](F)(F)(F)(F)F` [Ir2], the “PI (phototoxicity index) 3D” value in the data set on U87MG spheroids was 3.0. Also, the IC50 was determined as 14.9 ± 0.5 µM in the data set with U87MG spheroids (setting [2]), 5 ± 0.2 µM with U87MG spheroids (setting [3]), 6.9 ± 0.4 µM in the data set on U87MG cells (setting [4]) and 0.43 ± 0.02 µM in the data set on U87MG cells (setting [5]). Also, in the data set on U87MG spheroids, the “TMI (3D/2D)” value was 11.6. In addition, the “PI (phototoxicity index) 2D” value in the data set on U87MG cells came out at 16.
